PMC10484922, “Discovery of a selective and biologically active low-molecular weight antagonist of human interleukin-1β” (Nature Communications, 2023)

What was measured:
[1] = tested on: HEK-Blue IL-1β cells stimulated with hIL-1β; test: HEK293 reporter gene assay, hIL-1β as trigger; assay type: cell-based, human
Description: (§1) We used HEK-Blue™ IL-1β cells that respond specifically to IL-1 (# hkb-il1b, InvivoGen). These cells can detect IL-1α and IL-1β, as these cytokines bind to the same receptor, IL-1R1. They express a Seap reporter gene under the control of the IFN-β minimal promoter fused to five NF-kappaB and five AP-1 binding sites. Thirty microliters (300,000 cells/ml) per well of a 384-well plate were plated overnight. Cells were then stimulated with graded concentrations of cytokines (hIL-1α or hIL-1β) in the absence or presence of canakinumab (Ilaris®, ILARI LYVI 150MG 22GLW.012, batch U003 0409)[22], anakinra (Kineret®, 100 mg/0.67 ml injectable solution, Sobi)[23], or compound (S)-2 (compounds were pre-mixed for 1 h with the cytokine prior to addition to cells) and further incubated overnight before assessment of Seap activity.

[2] = tested on: HEK-Blue IL-1β cells stimulated with hIL-1α; test: HEK293 reporter gene assay, hIL-1α as trigger; assay type: cell-based, human
Description: as §1

[3] = tested on: normal human dermal fibroblasts stimulated with hIL-1β; test: Human fibroblast IL-6 release assay, hIL-1β stimulated; assay type: cell-based; set-up: IL-6, average / inhibition, replicates of EXP1, EXP2, EXP3 / inhibition, Mean / IL-1beta (mean, SD): mean readout (IL-6 release): unit not given here; details: for Mean OD (OD 450nm) / IL-1beta (mean, SD): mean readout (IL-6 release): Figure 3c; for Mean OD (OD 450nm): compound 1 nM; for IL-1beta (mean, SD): mean readout (IL-6 release): compound @ 1nM
Description: as §1
(§2) Normal human dermal fibroblasts (NHDF) from Clonetics^TM (LONZA, Cat # CC-2509 (NHDF-Neo), Lot # 0000234242, used at passage ≤14) were seeded at a density of 5000 cells/well in 100 μL of culture medium using 96-well plates (flat bottom, TCT). Treatment with cytokines/compounds was performed as described above. Cells were incubated for another 6 h and were subsequently spun down (320g/3 min). IL-6 was measured in the supernatant by ELISA (BioLegend, # 430503) or HTRF (Cisbio, #62HIL06PEH).

[4] = tested on: normal human dermal fibroblasts stimulated with hIL-1α; test: Human fibroblast IL-6 release assay, hIL-1α stimulated; assay type: cell-based; set-up: IL-1alpha (mean, SD): mean readout (IL-6 release): unit not given here; details: for Mean OD (OD 450nm) / IL-1alpha (mean, SD): mean readout (IL-6 release): Figure 3c; for Mean OD (OD 450nm): compound 1 nM; for IL-1alpha (mean, SD): mean readout (IL-6 release): compound @ 1nM
Description: as §1, §2

[5] = molecular target: IL-1β (Homo sapiens, UniProt P01584); test: protein-observed 1H-13C-HMQC NMR binding (I/Io of Leu60 Cδ1H3); set-up: Mature hIL-1β was expressed in Escherichia coli; made in house; host or cells: Escherichia coli BL21 (DE3), pET17b
IL-1β, sequence (P01584 117-269): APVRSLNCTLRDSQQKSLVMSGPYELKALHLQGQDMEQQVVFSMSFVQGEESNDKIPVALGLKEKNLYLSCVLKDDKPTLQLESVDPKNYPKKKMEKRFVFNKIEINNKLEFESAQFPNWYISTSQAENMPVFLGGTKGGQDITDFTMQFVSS
Description: ^1H–^13C- and ^1H–^15N-HMQC spectra were recorded on Bruker AVANCE 600 MHz and 800 MHz spectrometers equipped with TXI-cryocooled probeheads. In ligand binding experiments, protein concentrations were typically 50 μM in PBS, pH 7.4. Backbone assignments of hIL-1β in the ligand-bound state and unliganded state were obtained by a combination of a 3D triple resonance experiment HNCACB and a ^15N-edited NOESY spectrum, which were processed using TOPSPIN 3.2 and analyzed using CcpNmr AnalysisAssign 3.1.0[46]. ^15N-CEST experiments were run at weak B1 radiofrequency fields of 25 and 12.5 Hz on a Bruker AVANCE 800 MHz spectrometer with 113 increments and a total sweep width of 28 ppm in the pseudo-3D dimension. Peak intensities were extracted by fitting pseudo-Voigt lineshape models using peakipy (https://github.com/j-brady/peakipy). Fitted peak intensities were subsequently used to generate CEST profiles, and exchange parameters were fitted using ChemEx (https://github.com/gbouvignies/ChemEx).
Supplementary Figure 2. 13C-NMR and 19F-NMR reporter assays to monitor early
13C-HMQC spectra of hIL-1b (50 µM) were acquired in the presence (red) and absence (blue) of 500
µM compound and rows were extracted at the w1-frequency of the peak corresponding to Leu60 […]

## anakinra: IL-1R1 antagonist [reference compound]
[1]; IL-1beta 3.04596 pg/ml, inhibitor 3nM
  reporter gene assay signal, mean (Figure 3d): 0.06
[1]; IL-1beta 6.09192 pg/ml, inhibitor 3nM
  reporter gene assay signal, mean (Figure 3d): 0.06
[1]; IL-1beta 12.1838 pg/ml, inhibitor 3nM
  reporter gene assay signal, mean (Figure 3d): 0.06
[1]; IL-1beta 24.3677 pg/ml, inhibitor 3nM
  reporter gene assay signal, mean (Figure 3d): 0.06
[1]; IL-1beta 48.7353 pg/ml, inhibitor 3nM
  reporter gene assay signal, mean (Figure 3d): 0.06
[1]; IL-1beta 97.4707 pg/ml, inhibitor 3nM
  reporter gene assay signal, mean (Figure 3d): 0.07
[1]; IL-1beta 194.941 pg/ml, inhibitor 3nM
  reporter gene assay signal, mean (Figure 3d): 0.08
[1]; IL-1beta 389.883 pg/ml, inhibitor 3nM
  reporter gene assay signal, mean (Figure 3d): 0.09
[1]; IL-1beta 779.766 pg/ml, inhibitor 3nM
  reporter gene assay signal, mean (Figure 3d): 0.17
[1]; IL-1beta 1559.53 pg/ml, inhibitor 3nM
  reporter gene assay signal, mean (Figure 3d): 0.37
[1]; IL-1beta 3119.06 pg/ml, inhibitor 3nM
  reporter gene assay signal, mean (Figure 3d): 0.68
[1]; IL-1beta 6238.12 pg/ml, inhibitor 3nM
  reporter gene assay signal, mean (Figure 3d): 1.15
[1]; IL-1beta 12476.2 pg/ml, inhibitor 3nM
  reporter gene assay signal, mean (Figure 3d): 1.43
[1]; IL-1beta 24952.5 pg/ml, inhibitor 3nM
  reporter gene assay signal, mean (Figure 3d): 1.66
[1]; IL-1beta 49905 pg/ml, inhibitor 3nM
  reporter gene assay signal, mean (Figure 3d): 1.81
[2]; IL-1alpha 3.04596 pg/ml, inhibitor 3nM
  reporter gene assay signal, mean (Figure 3d): 0.06
[2]; IL-1alpha 6.09192 pg/ml, inhibitor 3nM
  reporter gene assay signal, mean (Figure 3d): 0.06
[2]; IL-1alpha 12.1838 pg/ml, inhibitor 3nM
  reporter gene assay signal, mean (Figure 3d): 0.06
[2]; IL-1alpha 24.3677 pg/ml, inhibitor 3nM
  reporter gene assay signal, mean (Figure 3d): 0.06
[2]; IL-1alpha 48.7353 pg/ml, inhibitor 3nM
  reporter gene assay signal, mean (Figure 3d): 0.06
[2]; IL-1alpha 97.4707 pg/ml, inhibitor 3nM
  reporter gene assay signal, mean (Figure 3d): 0.06
[2]; IL-1alpha 194.941 pg/ml, inhibitor 3nM
  reporter gene assay signal, mean (Figure 3d): 0.07
[2]; IL-1alpha 389.883 pg/ml, inhibitor 3nM
  reporter gene assay signal, mean (Figure 3d): 0.08
[2]; IL-1alpha 779.766 pg/ml, inhibitor 3nM
  reporter gene assay signal, mean (Figure 3d): 0.09
[2]; IL-1alpha 1559.53 pg/ml, inhibitor 3nM
  reporter gene assay signal, mean (Figure 3d): 0.15
[2]; IL-1alpha 3119.06 pg/ml, inhibitor 3nM
  reporter gene assay signal, mean (Figure 3d): 0.24
[2]; IL-1alpha 6238.12 pg/ml, inhibitor 3nM
  reporter gene assay signal, mean (Figure 3d): 0.46
[2]; IL-1alpha 12476.2 pg/ml, inhibitor 3nM
  reporter gene assay signal, mean (Figure 3d): 0.84
[2]; IL-1alpha 24952.5 pg/ml, inhibitor 3nM
  reporter gene assay signal, mean (Figure 3d): 1.11
[2]; IL-1alpha 49905 pg/ml, inhibitor 3nM
  reporter gene assay signal, mean (Figure 3d): 1.47
[3]
  block of hIL-1β driven IL-6 release: could block the release of IL-6
[3]; hu IL-1b 0 pg/mL
  Mean OD (OD 450nm): 0.034
  IL-1beta (mean, SD): mean readout (IL-6 release): 0
[3]; hu IL-1b 40 pg/mL
  Mean OD (OD 450nm): 0.047
  IL-1beta (mean, SD): mean readout (IL-6 release): 0
[3]; hu IL-1b 80 pg/mL
  Mean OD (OD 450nm): 0.079
  IL-1beta (mean, SD): mean readout (IL-6 release): 0
[3]; hu IL-1b 120 pg/mL
  Mean OD (OD 450nm): 0.102
  IL-1beta (mean, SD): mean readout (IL-6 release): 0
[3]; hu IL-1b 160 pg/mL
  Mean OD (OD 450nm): 0.157
  IL-1beta (mean, SD): mean readout (IL-6 release): 404.5
[3]; hu IL-1b 200 pg/mL
  Mean OD (OD 450nm): 0.162
  IL-1beta (mean, SD): mean readout (IL-6 release): 439.1
[4]
  effect on hIL-1α driven IL-6 release: could block the release of IL-6
[4]; hu IL-1A 0 pg/mL
  Mean OD (OD 450nm): 0.042
[4]; hu IL-1A 40 pg/mL
  Mean OD (OD 450nm): 0.05
[4]; hu IL-1A 80 pg/mL
  Mean OD (OD 450nm): 0.061
[4]; hu IL-1A 120 pg/mL
  Mean OD (OD 450nm): 0.067
[4]; hu IL-1A 160 pg/mL
  Mean OD (OD 450nm): 0.073
[4]; hu IL-1A 200 pg/mL
  Mean OD (OD 450nm): 0.103
[4]; hu IL-1a 0 pg/mL
  IL-1alpha (mean, SD): mean readout (IL-6 release): 0
[4]; hu IL-1a 40 pg/mL
  IL-1alpha (mean, SD): mean readout (IL-6 release): 0
[4]; hu IL-1a 80 pg/mL
  IL-1alpha (mean, SD): mean readout (IL-6 release): 0
[4]; hu IL-1a 120 pg/mL
  IL-1alpha (mean, SD): mean readout (IL-6 release): 0
[4]; hu IL-1a 160 pg/mL
  IL-1alpha (mean, SD): mean readout (IL-6 release): 0
[4]; hu IL-1a 200 pg/mL
  IL-1alpha (mean, SD): mean readout (IL-6 release): 3.7

## Cc1ccc2c(c1)NC(=O)[C@@]2(c1cn[nH]c1)c1cc(-c2ccc(C(=O)O)cc2C(=O)O)ccc1O [(S) 2]
[1]; IL-1beta 3.04596 pg/ml, inhibitor 50uM
  reporter gene assay signal, mean (Figure 3d): 0.06
[1]; IL-1beta 6.09192 pg/ml, inhibitor 50uM
  reporter gene assay signal, mean (Figure 3d): 0.06
[1]; IL-1beta 12.1838 pg/ml, inhibitor 50uM
  reporter gene assay signal, mean (Figure 3d): 0.06
[1]; IL-1beta 24.3677 pg/ml, inhibitor 50uM
  reporter gene assay signal, mean (Figure 3d): 0.08
[1]; IL-1beta 48.7353 pg/ml, inhibitor 50uM
  reporter gene assay signal, mean (Figure 3d): 0.1
[1]; IL-1beta 97.4707 pg/ml, inhibitor 50uM
  reporter gene assay signal, mean (Figure 3d): 0.17
[1]; IL-1beta 194.941 pg/ml, inhibitor 50uM
  reporter gene assay signal, mean (Figure 3d): 0.41
[1]; IL-1beta 389.883 pg/ml, inhibitor 50uM
  reporter gene assay signal, mean (Figure 3d): 0.84
[1]; IL-1beta 779.766 pg/ml, inhibitor 50uM
  reporter gene assay signal, mean (Figure 3d): 1.26
[1]; IL-1beta 1559.53 pg/ml, inhibitor 50uM
  reporter gene assay signal, mean (Figure 3d): 1.6
[1]; IL-1beta 3119.06 pg/ml, inhibitor 50uM
  reporter gene assay signal, mean (Figure 3d): 1.74
[1]; IL-1beta 6238.12 pg/ml, inhibitor 50uM
  reporter gene assay signal, mean (Figure 3d): 1.87
[1]; IL-1beta 12476.2 pg/ml, inhibitor 50uM
  reporter gene assay signal, mean (Figure 3d): 1.96
[1]; IL-1beta 24952.5 pg/ml, inhibitor 50uM
  reporter gene assay signal, mean (Figure 3d): 2.06
[1]; IL-1beta 49905 pg/ml, inhibitor 50uM
  reporter gene assay signal, mean (Figure 3d): 2.02
[2]; IL-1alpha 3.04596 pg/ml, inhibitor 50uM
  reporter gene assay signal, mean (Figure 3d): 0.08
[2]; IL-1alpha 6.09192 pg/ml, inhibitor 50uM
  reporter gene assay signal, mean (Figure 3d): 0.1
[2]; IL-1alpha 12.1838 pg/ml, inhibitor 50uM
  reporter gene assay signal, mean (Figure 3d): 0.15
[2]; IL-1alpha 24.3677 pg/ml, inhibitor 50uM
  reporter gene assay signal, mean (Figure 3d): 0.1
[2]; IL-1alpha 48.7353 pg/ml, inhibitor 50uM
  reporter gene assay signal, mean (Figure 3d): 0.59
[2]; IL-1alpha 97.4707 pg/ml, inhibitor 50uM
  reporter gene assay signal, mean (Figure 3d): 1.08
[2]; IL-1alpha 194.941 pg/ml, inhibitor 50uM
  reporter gene assay signal, mean (Figure 3d): 1.42
[2]; IL-1alpha 389.883 pg/ml, inhibitor 50uM
  reporter gene assay signal, mean (Figure 3d): 1.67
[2]; IL-1alpha 779.766 pg/ml, inhibitor 50uM
  reporter gene assay signal, mean (Figure 3d): 1.82
[2]; IL-1alpha 1559.53 pg/ml, inhibitor 50uM
  reporter gene assay signal, mean (Figure 3d): 1.88
[2]; IL-1alpha 3119.06 pg/ml, inhibitor 50uM
  reporter gene assay signal, mean (Figure 3d): 1.91
[2]; IL-1alpha 6238.12 pg/ml, inhibitor 50uM
  reporter gene assay signal, mean (Figure 3d): 1.96
[2]; IL-1alpha 12476.2 pg/ml, inhibitor 50uM
  reporter gene assay signal, mean (Figure 3d): 1.97
[2]; IL-1alpha 24952.5 pg/ml, inhibitor 50uM
  reporter gene assay signal, mean (Figure 3d): 2.03
[2]; IL-1alpha 49905 pg/ml, inhibitor 50uM
  reporter gene assay signal, mean (Figure 3d): 2.01

## O=C1Nc2cc(C(F)(F)F)ccc2[C@@]1(O)c1cc(Cl)ccc1O [Compound (R)-1]
[5]
  binding to hIL-1β by protein-observed NMR: only enantiomer (S)-1 showed binding to the protein
